The test system of series [1] is 3T3-L1 adipocytes. Briefly: Free fatty acid levels in cultured 3T3-L1 adipocytes stimulated with isoproterenol. Particulars: for Free Fatty Acid Levels, Percent of Control Value (Percent Isoproterenol Control): test peptides 25 μM, 20-22 hours then 3 hours with isoproterenol (1 nM).
Protocol: Mouse 3T3-L1 adipocytes were seeded at 3,000 cells per well in 96-well plates in Pre-adipocyte Medium (Zen-Bio, Durham, N.C.) and grown to confluence at 37° C. in a humidified atmosphere of 5% CO2/95% air. Two days after confluence, cells were placed in Adipocyte Differentiation Medium (Zen-Bio, Durham, N.C.) and cultured for three additional days at 37° C. in a humidified atmosphere of 5% CO2/95% air. The culture media was then replaced with Adipocyte Maintenance Medium (Zen-Bio) and the cells maintained for an additional 9-12 days at 37° C. in a humidified atmosphere of 5% CO2/95% air with partial medium replacement every other day. Following 12-15 days' differentiation, test peptides were added to a final concentration of 25 μM and incubated for 20-22 hours in Adipocyte Maintenance Medium. After 20-22 hours, isoproterenol (1 nM) was added to all wells except untreated controls and test peptides were replenished. Cells were incubated for a further 3 hours in Assay Buffer (Zen-Bio). Free fatty acid concentrations in the media were determined using a Free Fatty Acid Assay Kit (Zen-Bio) according to the manufacturer's instructions using a plate reader (540 nm). Absorbance values were corrected for untreated background and expressed relative to isoproterenol treated cells. Treatment with isoproterenol (1 nM) alone was used as the free fatty acid level stimulatory control. The relative standard deviation of the isoproterenol control was <10%.
For series [2], the system named is MDA-MB-231 cells. Description: Caspase 3/7 activity (Caspase-Glo 3/7) in MDA-MB-231 cells. It is filed as cell-based, human. Particulars: test peptides at 10 μM, 18 hours, relative to DMSO control. As to the method:
The effect of the peptides on cell death/survival can be assessed using a caspase-3 assay. Peptides were dissolved with DMSO at 10 mM stock. […] Staurosporine (Selleckchem) was dissolved with DMSO at 1 mM stock. Caspase-Glo 3/7 Assay Reagent was purchased from Promega (Madison, Wis.). MDA-MB-231 human breast cancer cell line was purchased from American Type Culture Collection (Manassas, Va.). MDA-MB-231 cells were grown in DMEM Medium supplemented with 10% FBS. 100 μg/ml penicillin and 100 μg/ml streptomycin were added to the culture medium. […] 25 μl of Caspase-Glo 3/7 Assay Reagent was added to each well and incubated at 37° C., 5% CO2 for 1 hour. Luminescence for each sample well on the plate was measured by Envision 2104 Multilabel Reader (PerkinElmer, Santa Clara, Calif.). Activity was calculated relative to DMSO control.

In series [3] the test system is MCF-7 cells. Description: Cell viability, MTS assay in MCF-7 cells. Particulars: for MTS Assay (cell viability), Percent of Control Activity: human, 72 hours, 10 µM. As to the method:
Peptides and reference compound staurosporine (Selleckchem) were dissolved with DMSO at 10 mM stock. CellTiter 96® AQueous One Solution Reagent (MTS assay reagent) was purchased from Promega (Madison, Wis.). MCF-7 human breast cancer cell line was purchased from American Type Culture Collection (Manassas, Va.). MCF-7 cells were grown in EMEM Medium supplemented with 10% FBS and 0.01 mg/ml human recombinant insulin. 100 μg/ml penicillin and 100 μg/ml streptomycin were added to the culture medium. […] 5 μl of CellTiter 96® AQueous One Solution Reagent (MTS assay reagent) was added to each well and incubated at 37° C., 5% CO2 for 5 hours. Absorbance at 492 nm was recorded by Envision 2104 Multilabel Reader. Treatment with DMSO alone was used as the cell viability activity control.

Series [4] relates to MDA-MB-231 cells. Description: Cell viability, MTS assay in MDA-MB-231 cells. It is filed as cell-based, human. The note with it: for MTS Assay (cell viability), Percent of Control Activity: human, 72 hours. As to the method: Test compounds and reference compound staurosporine (Selleckchem) were all dissolved with DMSO at 10 mM stock. […] Activity was calculated relative to DMSO control. […] Cell viability was 3% of the DMSO control value for Staurosporine (10 uM).

Where a SMILES comes first, the peptide text is derived from it. Where no end group is shown, it is not given here. [ ]: non-standard residue; d: D form.

Consider “4 (ACFRCEIVVGSWCWSLS; not fully specified; cysteine pairing not given here) [compound 4]”, for which, in series [1], the “Free Fatty Acid Levels, Percent of Control Value (Percent Isoproterenol Control)” value (from here on “Free Fatty Acid Levels, Percent”) is listed as 116%. Regarding 25 (VITFIWSCTKIF) [compound 25], in series [1], the “Free Fatty Acid Levels, Percent” value turned out to be 115%.

For the compound “5 ([dA]CFRCEIVVGSWCWSLS; cysteine pairing not given here) [compound 5]”, in series [1], the “Free Fatty Acid Levels, Percent” value amounted to 113%. Regarding Insulin [reference compound], the “Free fatty acid levels, % of the isoproterenol control value” in series [1] (insulin 100 nM, positive control) is reported as less than 5%.

As to 14 (WWVSEPHCVVVN) [compound 14], in series [1], the “Free Fatty Acid Levels, Percent” value is 102%. In the case of 23 (VITFIWSCTKIFGA) [compound 23], in series [1], the “Free Fatty Acid Levels, Percent” value stood at 128%. As for `CC[C@H](C)[C@H](NC(=O)[C@H](CCC(=O)O)NC(=O)[C@H](CS)NC(=O)[C@H](CCCNC(=N)N)NC(=O)[C@H](Cc1ccccc1)NC(=O)[C@H](CS)NC(=O)[C@H](C)NC(=O)[C@H](CC(C)C)NC(=O)[C@@H](N)CCSC)C(=O)N[C@H](C(=O)N[C@H](C(=O)NCC(=O)N[C@@H](CO)C(=O)N[C@@H](Cc1c[nH]c2ccccc12)C(=O)N[C@@H](CS)C(=O)N[C@@H](Cc1c[nH]c2ccccc12)C(=O)N[C@@H](CO)C(=O)N[C@@H](CC(C)C)C(=O)N[C@@H](CO)C(=O)O)C(C)C)C(C)C` [compound 2] (H-MLACFRCEIVVGSWCWSLS-OH; N-terminus and C-terminus assumed), in series [2], the “Caspase 3/7 Activity, Percent of Control Activity” value (from here on “Caspase 3/7 Activity, Percent”) amounted to 95%. Further, the “MTS Assay (cell viability), Percent of Control Activity” value (“MTS Assay (cell viability), Percent” below) in series [3] was 55%; in series [4], 78%. Further, the “Free Fatty Acid Levels, Percent” value in series [1] came out at 114%. Take MWWVSEPHCVVVNM [compound 12]: the “Caspase 3/7 Activity, Percent” value in series [2] is listed as 56%. The “MTS Assay (cell viability), Percent” value in series [3] is listed as 63%; in series [4], 78%. In addition, the “Free Fatty Acid Levels, Percent” value in series [1] is recorded as 112%. Regarding 15 (WVSEPHCVVVN) [compound 15], the “Free Fatty Acid Levels, Percent” value in series [1] is 97%. 9 (NIVVGKRLIIKVD[dA]TMDFT) [compound 9]: in series [1], the “Free Fatty Acid Levels, Percent” value came to 103%.

For 20 (HRILTVIYKLRP[dA]H) [compound 20], the “Free Fatty Acid Levels, Percent” value in series [1] worked out at 27%.

As for 3 (LACFRCEIVVGSWCWSLS) [compound 3], in series [1], the “Free Fatty Acid Levels, Percent” value was 109%.

For the compound 19 (HHRILTVIYKLRPKH) [compound 19], in series [1], the “Free Fatty Acid Levels, Percent” value worked out at 78%. Regarding MVHHRILTVIYKLRPKH [compound 17], the “Caspase 3/7 Activity, Percent” value in series [2] came out at 74%. Also, the “MTS Assay (cell viability), Percent” value turned out to be 60% in series [3] and 82% in series [4]. The “Free Fatty Acid Levels, Percent” value in series [1] worked out at 88%. With 13 (WWVSEPHCVVVNM) [compound 13], the “Free Fatty Acid Levels, Percent” value in series [1] is given as 109%.

With 24 (VITFIWSCTKIFG) [compound 24], the “Free Fatty Acid Levels, Percent” value in series [1] amounted to 90%. Same read-out and setting: for “8 (NIVVGKRLIIKVDATMDFT; not fully specified) [compound 8]” the value was 81%. Consider MVITFIWSCTKIFGA [compound 22], for which the “Caspase 3/7 Activity, Percent” value in series [2] is 69%. Moreover, the “MTS Assay (cell viability), Percent” value in series [3] was 58%; in series [4] it was 81%. Further, the “Free Fatty Acid Levels, Percent” value in series [1] was 133%. Consider `CN[C@@H]1C[C@H]2O[C@@](C)([C@@H]1OC)n1c3ccccc3c3c4c(c5c6ccccc6n2c5c31)C(=O)NC4` [staurosporine, reference compound], for which, in series [3] (MCF-7 cells, staurosporine 10 uM, positive control), the “Cell viability, % of the background corrected DMSO control value” is on record as less than 5%. Further, in series [4] (MDA-MB-231 cells, Staurosporine 10 uM, positive control), the “Cell viability, % of the DMSO control value” was 3%. Regarding “10 (NIVV[dA]KRLIIKVDATMDFT) [compound 10]”, the “Free Fatty Acid Levels, Percent” value in series [1] was found to be 91%.

With MNIVVGKRLIIKVDATMDFT [compound 7], in series [2], the “Caspase 3/7 Activity, Percent” value is listed as 73%. Further, the figures for the “MTS Assay (cell viability), Percent” value in series [3] and in series [4] were 59% and 75%, respectively. The “Free Fatty Acid Levels, Percent” value in series [1] is 94%.

Take 18 (VHHRILTVIYKLRPKH) [compound 18]: the “Free Fatty Acid Levels, Percent” value in series [1] was 75%.
